According to patent US8993765B2, “Tetrahydro-azacarboline MCH-1 antagonists, methods of making, and uses thereof” (Albany Molecular Research, Inc., priority 2010, dated 2015):

Key:
human MCH-1 receptor = human MCH-1 receptor (Homo sapiens (Human), UniProt Q99705); experiment: Binding Assay for Human Melanin-Concentrating Hormone (MCH-1) Receptor; conditions: membranes of CHO-K1 cells expressing human MCH-1 receptor; for Ki: radioligand displacement, Ki by Cheng Prusoff equation, read-out: MCH1 Ki
Protocol: Binding Assay for Human Melanin-Concentrating Hormone (MCH-1) Receptor
Evaluation of the affinity of compounds for the human MCH-1 receptor was accomplished using 4-(3,4,5-tritritiumbenzyloxy)-1-(1-(2-(pyrrolidin-1-yl)ethyl)-1H-indazol-5-yl)pyridin-2(1H)-one and membranes prepared from stable CHO-K1 cells expressing the human MCH-1 receptor obtained from Euroscreen (Batch 1138). Cell membrane homogenates (8.92 μg protein) were incubated for 60 min at 25° C. with […] of the [^3H]-labeled compound in the absence or presence of the test compound in 50 mM Tris-HCl buffer, pH 7.4. Nonspecific binding was determined in the presence of 50 μM 1-(5-(4-cyanophenyl)bicyclo[3.1.0]hexan-2-yl)-3-(4-fluoro-3-(trifluoromethyl)phenyl)-1-(3-(4-methylpiperazin-1-yl)propyl)urea. Following incubation, the samples were filtered rapidly under vacuum through Skatron 11731 filters, pre-soaked in 0.5% polyethylenimine, and washed with ice-cold 50 mM Tris-HCl buffer, pH 7.4, (wash setting 9,9,0) using a Skatron cell harvester. The filters were counted for radioactivity in a liquid scintillation counter (Tri-Carb 2100TR, Packard) using a scintillation cocktail (Ultima Gold MV, Perkin Elmer).
The results are expressed as a percent inhibition of the control radioligand specific binding. The IC50 value (concentration causing a half-maximal inhibition of control specific binding) and Hill coefficient (nH) were determined by non-linear regression analysis of the competition curve using Hill equation curve fitting. The inhibition constant (Ki) was calculated from the Cheng Prusoff equation: (Ki=IC50/(1+(L/KD)), where L=concentration of radioligand in the assay, and KD=affinity of the radioligand for the receptor.

Sequence of human MCH-1 receptor (Q99705 whole entry): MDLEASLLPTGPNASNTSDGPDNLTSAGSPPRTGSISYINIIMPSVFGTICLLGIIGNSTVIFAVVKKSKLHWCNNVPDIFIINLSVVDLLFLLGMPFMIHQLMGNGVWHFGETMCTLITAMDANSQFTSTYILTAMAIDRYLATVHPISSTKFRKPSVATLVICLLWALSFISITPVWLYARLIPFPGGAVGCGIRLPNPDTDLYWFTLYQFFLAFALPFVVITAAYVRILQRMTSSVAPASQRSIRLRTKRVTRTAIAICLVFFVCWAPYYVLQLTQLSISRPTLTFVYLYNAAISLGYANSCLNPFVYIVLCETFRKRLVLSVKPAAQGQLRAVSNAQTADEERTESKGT

Ki (human MCH-1 receptor) | melting point | inhibition at 1 µM (human MCH-1 receptor; @ 1 uM test compound, read-out: MCH1 percent inhibition of control radioligand specific binding) | Structure (SMILES)
0.025 µM | 288 to 292 °C |  | CC1Cc2c(c3ccc(-n4ccc(OCc5ccc(F)cn5)cc4=O)nc3n2C)CN1.Cl (centres unmarked) [Example 14, 1-(7,9-Dimethyl-5,7,8,9-tetrahydro-6H-pyrido[3′,4′:4,5]pyrrolo[2,3-b]pyridin-2-yl)-4-((5-fluoropyridin-2-yl)methoxy)pyridin-2(1H)-one hydrochloride]
0.0083 µM | 206 to 210 °C |  | Cl.Cn1c2c(c3ccc(-n4ccc(OCc5ccc(F)cc5F)cc4=O)nc31)CNCC2 [Example 16, 4-((2,4-Difluorophenyl)methoxy)-1-(9-methyl-5,7,8,9-tetrahydro-6H-pyrido[3′,4′:4,5]pyrrolo[2,3-b]pyridin-2-yl)pyridin-2(1H)-one hydrochloride]
 | 245 to 255 °C | 72% | Cl.O=c1cc(OCc2ccc(F)cn2)ccn1-c1ccc2c(c1)nc1n2CCNC1 [Example 19, 4-((5-Fluoropyridin-2-yl)methoxy)-1-(1,2,3,4-tetrahydropyrazino[1,2-a]benzimidazol-8-yl)pyridin-2(1H)-one hydrochloride]
0.021 µM | 280 °C (dec.) |  | Cl.O=c1cc(OCc2ccccc2)ccn1-c1ccn2c3c(nc2c1)CCNC3 [Example 22, 4-(Benzyloxy)-1-(1,2,3,4-tetrahydropyrido[4′,3′:4,5]imidazo[1,2-a]pyridin-7-yl)pyridin-2(1H)-one hydrochloride]
